{"source": "patent US20260273014A1", "about": "“Herbal composition for metabolic syndromes and method of treatment thereof” (priority 2019, published 2026)", "origin": "cited, not measured here", "settings": "pure mangiferin (Acosta et al. 2016)"}
{"smiles": "O=c1c2cc(O)c(O)cc2oc2cc(O)c([C@@H]3O[C@H](CO)[C@@H](O)[C@H](O)[C@H]3O)c(O)c12", "note": "[mangiferin]", "values": [{"measurement": "solubility", "result": "an issue in most biological models"}]}
